We go through five molecules from US20250281488A1, “VCP INHIBITORS AND USES THEREOF FOR TREATMENT” (The Francis Crick Institute Limited, priority 2021, published 2025).

Test [1] deals with TARDBP-mutant (G298S) motor neurons. To be noted: 1 μM CB-5083, 3 hours, vs untreated.
Experimental: Immunofluorescence staining. Cells were fixed in 4% paraformaldehyde in PBS for 15 minutes at room temperature (RT). For permeabilization and non-specific antibody blocking, 0.3% Triton-X containing 5% bovine serum albumin (BSA) (Sigma) in PBS was added for 60 minutes. Primary antibodies were made up in 5% BSA and then applied overnight at 4° C. […]
Image acquisition and analysis. […] To calculate the nuclear:cytoplasmic ratio of RNA-binding proteins (RBPs) in single cells, images were analysed using the Columbus Image Analysis System (Perkin Elmer). […] For each individual cell an average nuclear intensity of the RBP of interest was measured. For the cytoplasmic measurement, a 1.5 μm cytoplasmic region was defined around the nucleus within a cytoplasmic mask and an average intensity measured. […] A ratio of the nuclear:cytoplasmic average intensity measurements was calculated per cell. An average of each field was calculated and then averaged across the well.
The test system of test [2] is VCP mutant motor neurons. The test is described as follows: RBP localisation by immunofluorescence in VCP mutant iPSC-derived motor neurons. It is filed as cell-based, human. How it is done:
(§1) Cell culture and motor neuron differentiation. IPSCs were maintained with Essential 8 Medium media (Life Technologies) on Geltrex (Life Technologies), and passaged using EDTA (Life Technologies, 0.5 mM). IPSC cultures were kept at 37° C. and 5% carbon dioxide. IPSCs underwent differentiation into spinal cord motor neurons as described in Hall et al, 2017 [12].
(§2) IPSC were plated to 100% confluency and then differentiated to the neuroepithelium in medium consisting of DMEM/F12 Glutamax, Neurobasal, L-Glutamine, N2 supplement, nonessential amino acids, B27 supplement, β-mercaptoethanol (all from Life Technologies) and insulin (Sigma). The cells underwent a sequential treatment with small molecules, with day 0-7: 1 μM Dorsomorphin (Millipore), 2 μM SB431542 (Tocris Bioscience), and 3.3 μM CHIR99021 (Miltenyi Biotec), day 7-14: 0.5 μM retinoic acid (Sigma) and 1 μM Purmorphamine (Sigma), day 14-18: 0.1 μM Purmorphamine. Following 18 days of neural conversion and patterning, neural precursors were terminally differentiated in 0.1 μM Compound E (Enzo Life Sciences).
(§3) […] neuroepithelial layer was enzymatically dissociated using dispase (GIBCO, 1 mg ml−1). The neural precursors were dissociated with Accutase (Life Technologies) for final plating onto a 96 well plate (Falcon) coated with polyethylenimine (PEI) (2.2 mg/ml in 0.1M of sodium borate (Sigma) and Geltrex. Following 6 days of terminal differentiation, cells were fixed in 4% paraformaldehyde for immunolabeling.
(§4) Inhibitor treatment. Motor neuron cultures were treated with 1 μM of ML240 (Sigma; SML1071; CAS:1346527-98-7) for 2 hours, 5 μM of DBeQ for 3 hours or 1 μM of CB-5083 for 3 hours.
(§5) Immunofluorescence staining. Cells were fixed in 4% paraformaldehyde in PBS for 15 minutes at room temperature (RT). For permeabilization and non-specific antibody blocking, 0.3% Triton-X containing 5% bovine serum albumin (BSA) (Sigma) in PBS was added for 60 minutes. Primary antibodies were made up in 5% BSA and then applied overnight at 4° C. Primary antibodies used were SMI-32 (BioLegend; 801701; mouse; 1:1000), ChAT (Millipore; AB144P; goat; 1:100), βIII-tubulin (abcam; ab41489; chicken; 1:1000), TDP-43 (ProteinTech; 12892-1-AP; rabbit; 1:400), SFPQ (abcam; ab11825; mouse; 1:400), FUS (Santa Cruz; sc-47711; mouse; 1:200), hnRNPA1 (Cell Signaling; 8443S; rabbit; 1:500), hnRNPK (Santa Cruz; sc-28380; mouse; 1:500). A species-specific Alexa Fluor-conjugated secondary antibody (Life Technologies) at 1:1000 dilution in 5% BSA was added for 90 minutes at RT in the dark. Cells were washed once in PBS containing DAPI, 4′,6-diamidino-2-phenylindole nuclear stain (1:1000) for 10 minutes.
(§6) Image acquisition and analysis. Images were acquired using the Opera Phenix High-Content Screening System (Perkin Elmer). Images were acquired with a 40× objective as confocal z-stacks with a z-step of 1 μm. Stacks were processed to obtain a maximum intensity projection. A minimum of 12 fields of view were taken for each well. To calculate the nuclear:cytoplasmic ratio of RNA-binding proteins (RBPs) in single cells, images were analysed using the Columbus Image Analysis System (Perkin Elmer). A DAPI mask defined the nucleus, and based on nuclear properties a trained machine learning feature selected neurons in an automated fashion. For each individual cell an average nuclear intensity of the RBP of interest was measured. For the cytoplasmic measurement, a 1.5 μm cytoplasmic region was defined around the nucleus within a cytoplasmic mask and an average intensity measured. […] A ratio of the nuclear:cytoplasmic average intensity measurements was calculated per cell. An average of each field was calculated and then averaged across the well.
(§7) For the nuclear:neurite ratio, we implemented a semi-automated image analysis pipeline combining Ilastik, Cellprofiler and ImageJ.

The subject of test [3] is control motor neurons. In words: RBP localisation by immunofluorescence in control iPSC-derived motor neurons. It counts as cell-based, human. To be noted: vs untreated. As for the experimental part:
as §1, §2, §3, §4, §5, §6, §7

Test [4] relates to control and VCP mutant motor neurons. The test is described as follows: Western blot of TDP-43, FUS and SFPQ protein levels. It is filed as cell-based, human. To be noted: 1 μM ML240, 2 hours; whole cells. How it is done:
Western blot analysis. Protein levels of TDP-43, FUS and SFPQ were assessed in whole cells in control and VCP mutant motor neurons. Cells were subjected to untreated conditions or treatment of 1 μM of ML240 for 2 hours prior to protein extraction. The cells were lysed and proteins were extracted with RIPA disruption. Total protein concentration was quantified using BCA protein assay (Sigma). Equal amounts of protein samples were then loaded onto a gel and separated by SDS PAGE and transferred onto a nitrocellulose membrane. Samples were then blocked with PBS, 0.1% Tween, 5% dry milk powder at RT for one hour followed by primary antibody incubation overnight at 4° C. The following antibodies were diluted in PBS 5% BSA; TDP-43 (ProteinTech; 12892-1-AP; rabbit; 1:1000), SFPQ (Abcam; 11825; mouse; 1:250), FUS (Santa Cruz; sc-47711; mouse; 1:500), GAPDH (GeneTex; GT239; mouse; 1:10000). For detection, membranes were incubated with species-specific near infra-red fluorescent antibodies (IRDye, Licor) at RT for one hour and imaged using an Odyssey Fc Imaging System (Licor).

Test [5] has as its system Ub-G76V. The settings on record: read-out: Potency of inhibition: EC50 on Ub-G76V in cell culture; cited from earlier work.
In test [6] the target is VCP ATPase (Homo sapiens, UniProt P55072). The settings on record: read-out: Potency of inhibition: IC50 on ATPase in vitro; cited from earlier work.
Chain of VCP ATPase (P55072 whole entry): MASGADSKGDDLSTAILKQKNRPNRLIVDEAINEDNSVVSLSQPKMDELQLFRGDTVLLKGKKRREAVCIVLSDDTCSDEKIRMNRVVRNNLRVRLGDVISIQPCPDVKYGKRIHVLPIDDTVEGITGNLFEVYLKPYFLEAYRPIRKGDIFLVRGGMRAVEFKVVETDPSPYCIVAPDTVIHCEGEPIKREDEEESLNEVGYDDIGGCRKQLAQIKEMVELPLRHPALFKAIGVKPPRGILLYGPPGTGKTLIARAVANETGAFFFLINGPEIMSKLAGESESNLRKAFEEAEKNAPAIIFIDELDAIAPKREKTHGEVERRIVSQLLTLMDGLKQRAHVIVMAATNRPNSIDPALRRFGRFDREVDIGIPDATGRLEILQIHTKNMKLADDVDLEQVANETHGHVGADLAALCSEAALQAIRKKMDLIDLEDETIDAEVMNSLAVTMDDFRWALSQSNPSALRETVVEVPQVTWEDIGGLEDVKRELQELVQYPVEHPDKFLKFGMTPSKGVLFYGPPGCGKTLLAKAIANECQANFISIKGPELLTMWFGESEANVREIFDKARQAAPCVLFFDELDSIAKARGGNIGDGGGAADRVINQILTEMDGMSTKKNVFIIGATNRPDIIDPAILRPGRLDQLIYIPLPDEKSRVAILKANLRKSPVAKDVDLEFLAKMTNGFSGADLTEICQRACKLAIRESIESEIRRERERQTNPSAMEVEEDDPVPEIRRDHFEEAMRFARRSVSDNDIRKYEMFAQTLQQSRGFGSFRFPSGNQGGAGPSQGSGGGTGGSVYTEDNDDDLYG
[7] abbreviates: 1 μM ML240, 2 hours, normalised to control untreated.

Entries after “also recorded” stand apart in the source; their conditions may differ. Read-outs that look alike come from different tables or passages of the source.

In the case of `Cc1cc2c(C(N)=O)cccc2n1-c1nc2c(c(NCc3ccccc3)n1)COCC2` [CB-5083, 1-[7,8-dihydro-4-[(phenylmethyl)amino]-5H-pyrano[4,3-d]pyrimidin-2-yl]-2-methyl-1H-indole-4-carboxamide], the “TDP-43 nuclear:cytoplasmic ratio (N/C)” value is reported as “increased” in test [1]; “increase” in test [1] (listed as CB5083); “able to reverse” in test [2] (1 μM CB-5083, 3 hours, vs untreated); “increase” in test [2] (1 μM CB-5083, 3 hours, vs untreated, listed as CB5083); “increase” in test [3] (1 μM CB-5083, 3 hours).

For the molecule `COc1cccc2c(NCc3ccccc3)nc(-n3c(N)nc4ccccc43)nc12` [ML240, 2-(2-Amino-1H-benzimidazole-1-yl)-8-methoxy-N-(phenylmethyl)-4-quinazolinamine], in test [2] (1 μM ML240, 2 hours), the “hnRNPA1 nuclear:cytoplasmic ratio” value is reported as “no change” and the “hnRNPK nuclear:cytoplasmic ratio” value is “no change”. Besides, in test [2] (setting [7]), the “FUS nuclear:cytoplasmic ratio” value is on record as “robustly reversed the mislocalization; also recorded: increase”, the “FUS nuclear:neurite ratio” value is “robustly reversed the mislocalization; also recorded: increase of the nuclear:neurite ratio to control values”, the “SFPQ nuclear:neurite ratio” value is “significantly reversed; also recorded: increase” and the “TDP-43 nuclear:cytoplasmic ratio (N/C)” value is given as “robustly reversed the mislocalization; also recorded: increased above control values”. Moreover, in test [2] (setting [7]), the “TDP-43 nuclear:neurite ratio (Nu/Ne)” value is on record as “robustly reversed the mislocalization; also recorded: increased”. Also, in test [3] (1 μM ML240, 2 hours), the “FUS nuclear:cytoplasmic ratio” value is listed as “no difference”, the “FUS nuclear:neurite ratio” value is “small increase”, the “SFPQ nuclear:cytoplasmic ratio” value is listed as “no difference” and the “SFPQ nuclear:neurite ratio” value is on record as “no difference”. Further, in test [3] (1 μM ML240, 2 hours), the “TDP-43 nuclear:cytoplasmic ratio (N/C)” value is listed as “increase”, the “TDP-43 nuclear:neurite ratio (Nu/Ne)” value is given as “no such increase was observed; also recorded: no difference”, the “hnRNPA1 nuclear:cytoplasmic ratio” value is reported as “no difference” and the “hnRNPK nuclear:cytoplasmic ratio” value is listed as “no difference”. Besides, in test [4], the “FUS overall protein level (Western blot, normalised to GAPDH)” value is on record as “did not change; also recorded: does not change”; the “SFPQ overall protein level (Western blot, normalised to GAPDH)” value is reported as “did not change; also recorded: does not change”; the “TDP-43 overall protein level (Western blot, normalised to GAPDH)” value is “did not change; also recorded: does not change”.

For orientation: EC50 means the concentration that produces a half-maximal response. Take `Cc1cc(OCc2nnc(SC3CCCC3)n2-c2cccnc2)ccc1-c1ccc(S(C)(=O)=O)cc1` [NMS-873]: the EC50 in test [5] is 400 to 700 nM.

For orientation: IC50 means the concentration needed to halve the response being measured. Consider `c1ccc(CNc2nc(NCc3ccccc3)c3ccccc3n2)cc1` [DBeQ, N2,N4-dibenzylquinazo-line-2,4-diamine], for which the IC50 in test [6] was 1500 nM. Moreover, the “TDP-43 nuclear:cytoplasmic ratio (N/C)” value was “able to reverse” in test [2] (5 μM DBeQ, 3 hours, vs untreated); “increase” in test [2] (5 μM DBeQ, 3 hours, vs untreated, listed as DBEQ); “increased” in test [3] (5 μM DBeQ, 3 hours); “increase” in test [3] (5 μM DBeQ, 3 hours, listed as DBEQ). Further, the EC50 in test [5] was 2600 nM.

Regarding “3,4-methylenedioxy-6-nitrostyrene [Syk inhibitor III]”, the IC50 in test [6] was 1700 nM. Besides, the EC50 in test [5] was 1600 nM.
